# Assay results as given in patent US6329526A, “Cycloalkyl substituted imidazoles” (SmithKline Beecham Corporation, priority 1998, dated 2001).
# What was measured:
# human PGHS-2 = test: PGHS-2 protein expression in LPS stimulated human monocytes; assay type: cell-based
# Description: The following assay describes a method for determining the inhibitory effects of compounds of Formula (I) on human PGHS-2 protein expression in LPS stimulated human monocytes.
# Method: Human peripheral blood monocytes were isolated from buffy coats by centrifugation through Ficoll and Percoll gradients. Cells were seeded at 2×10^6 /well in 24 well plates and allowed to adhere for 1 hour in RPMI supplemented with 1% human AB serum, 20 mM L-glutamine, Penicillin-Streptomycin and 10 mM HEPES. Compounds were added at various concentrations and incubated at 37° C. for 10 minutes. LPS was added at 50 ng/well (to induce enzyme expression) and incubated overnight at 37° C. The supernatant was removed and cells washed once in cold PBS. The cells were lysed in 100 μl of cold lysis buffer(50 mM Tris/HCl pH 7.5, 150 mM NaCl, 1% NP40, 0.5% sodium deoxycholate, 0.1% SDS, 300 ug/ml DNAse, 0.1% TRITON X-100, 1 mM PMSF, 1 mM leupeptin, 1 mM pepstatin). The lysate was centrifuged (10,000× g for 10 min. at 4° C.) to remove debris and the soluble fraction was subjected to SDS PAGE. analysis (12% gel). Protein separated on the gel were transferred onto nitrocellulose membrane by electrophoretic means for 2 hours at 60 volts. The membrane was pretreated for one hour in PBS/0.1% Tween 20 with 5% non-fat dry milk. After washing 3 times in PBS/Tween buffer, the membrane was incubated with a 1:2000 dilution of a monospecific antiserum to PGHS-2 or a 1:1000 dilution of an antiserum to PGHs-1 in PBS/Tween with 1% BSA for one hour with continuous shaking. The membrane was washed 3× in PBS/Tween and then incubated with a 1:3000 dilution of horseradish peroxidase conjugated donkey antiserum to rabbit Ig (Amersham) in PBS/Tween with 1% BSA for one hour with continuous shaking. The membrane was then washed 3× in PBS/Tween and the ECL immunodetection system (Amersham) was used to detect the level of expression of prostaglandin endoperoxide synthases-2.
# Interleukin-1 (IL-1) = test: IL-1 production by LPS-stimulated human peripheral blood monocytes (IL-1 bioassay or ELISA); assay type: cell-based; conditions: LPS 50 ng/ml, 24 hours
# Description: The cytokine-inhibiting effects of compounds of the present invention were determined by the following in vitro assays: Interleukin -1 (IL-1) Human peripheral blood monocytes are isolated and purified from either fresh blood preparations from volunteer donors, or from blood bank buffy coats, according to the procedure of Colotta et al, J Immunol, 132, 936 (1984). These monocytes (1×10^6) are plated in 24-well plates at a concentration of 1-2 million/ml per well. The cells are allowed to adhere for 2 hours, after which time non-adherent cells are removed by gentle washing. Test compounds are then added to the cells for about 1 hour before the addition of lipopolysaccharide (50 ng/ml), and the cultures are incubated at 37° C. for an additional 24 hours. At the end of this period, culture supernatants are removed and clarified of cells and all debris. Culture supernatants are then immediately assayed for IL-1 biological activity, either by the method of Simon et al., J. Immunol. Methods, 84, 85, (1985) (based on ability of IL-1 to stimulate a Interleukin 2 producing cell line (EL-4) to secrete IL-2, in concert with A23187 ionophore) or the method of Lee et al., J. ImmunoTherapy, 6 (1), 1-12 (1990) (ELISA assay).
# Interleukin-8 (IL-8) = test: IL-8 production by primary human umbilical cord endothelial cells (HUVEC), ELISA; assay type: cell-based; conditions: test compound between 1 and 10 μM
# Description: Primary human umbilical cord endothelial cells (HUVEC) (Cell Systems, […], Wash.) are maintained in culture medium supplemented with 15% fetal bovine serum and 1% CS-HBGF consisting of aFGF and heparin. The cells are then diluted 20-fold before being plated (250 μl) into gelating coated 96-well plates. Prior to use, culture medium are replaced with fresh medium (200 μl). Buffer or test compound (25 μl, at concentrations between 1 and 10 μM) is then added to each well in quadruplicate wells and the plates incubated for 6h in a humidified incubator at 37° C. in an atmosphere of 5% CO2. At the end of the incubation period, supernatant is removed and assayed for IL-8 concentration using an IL-8 ELISA kit obtained from R&D Systems (Minneapolis, Minn.). All data is presented as mean value (ng/ml) of multiple samples based on the standard curve. IC50's where appropriate are generated by non-linear regression analysis.
# [1] = system: Tumour Necrosis Factor (TNF); test: TNF production by LPS-stimulated human peripheral blood monocytes (radioimmunoassay or ELISA); assay type: cell-based; conditions: LPS 100 ng/ml, 16-18 hours
# CSBP2 = target: T1, CSBP2 (Homo sapiens, UniProt Q16539); test: CSBP Kinase Assay (32P transfer to EGFR-derived peptide T669); assay type: biochemical
# T1 construct: made in house; host or cells: yeast
# Description: Compounds (5 ul from [6X] stock^(2)) are pre-incubated with the enzyme and peptide for 20 min on ice prior to starting the reactions with 32P/MgATP. Reactions are incubated at 30° C. for 10 min and stopped by adding 10 ul of 0.3 M phosphoric acid. 32P-labeled peptide is separated on phosphocellulose (Wattman, p81) filters by spotting 30 ul reaction mixture. Filters are washed 3 times with 75 mM phosphoric acid followed by 2 washes with H2 O, and counted for 32P.
# T1 sequence (Q16539 whole entry): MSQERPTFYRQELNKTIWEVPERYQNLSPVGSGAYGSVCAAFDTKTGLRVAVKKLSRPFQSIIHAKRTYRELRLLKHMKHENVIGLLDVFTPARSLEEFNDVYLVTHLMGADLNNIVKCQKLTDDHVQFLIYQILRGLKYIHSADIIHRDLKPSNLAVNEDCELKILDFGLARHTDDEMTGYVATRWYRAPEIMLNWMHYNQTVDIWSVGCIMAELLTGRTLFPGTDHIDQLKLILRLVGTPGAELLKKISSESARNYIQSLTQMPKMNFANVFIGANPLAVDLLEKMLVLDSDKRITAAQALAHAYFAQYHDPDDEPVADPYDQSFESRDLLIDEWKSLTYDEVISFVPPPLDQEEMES
smiles,measurement,setting,value
"C[S+]([O-])c1ccc(-c2nc3n(c2-c2ccncc2)CCC3)cc1 (stereo not drawn) [2-(4-Methylsulfinylphenyl)-3-(4-pyridyl)-6,7-dihydro-(5H)-pyrrolo[1,2-a]imidazole]",inhibition of LPS induced PGHS-2 protein expression,human PGHS-2; up to 10 uM,inactive
C[S+]([O-])c1ccc(-c2nc(-c3ccc(F)cc3)c(-c3ccncc3)[nH]2)cc1 (stereo not drawn) [4-(4-Fluorophenyl)-2-(4-methylsulfinylphenyl)-5-(4-pyridyl)imidazole],inhibition of LPS induced PGHS-2 protein expression,"human PGHS-2; LPS stimulated human monocytes, rank order potency similar to that for inhibiting cytokine production",active
"COc1nccc(-c2c(-c3ccc(F)cc3)ncn2[C@H]2CC[C@H](O)CC2)n1 [Example 2, trans-1-(4-Hydroxycyclohexyl)-4-(4-fluorophenyl)-5-[(2-methoxy)pyrimidin-4-yl]imidazole]",inhibitory activity against IL-1,Interleukin-1 (IL-1),positive inhibitory activity
same,inhibitory activity against IL-8,Interleukin-8 (IL-8),positive inhibitory activity
same,inhibitory activity against TNF,[1],positive inhibitory activity
"CCOc1nccc(-c2c(-c3ccc(F)cc3)ncn2[C@H]2CC[C@H](O)CC2)n1 [Example 9, trans-1-(4-Hydroxycyclohexyl)-4-(4-fluorophenyl)-5-[(2-ethoxy)pyrimidine-4-yl]imidazole]",IC50,CSBP2,< 50 µM
CC(Cc1ccc(O)c(O)c1)C(C)Cc1ccc(O)c(O)c1 (stereo not drawn) [NDGA],inhibition of LPS induced PGHS-2 protein expression,human PGHS-2; up to 10 uM,inactive
O=C1CCN(c2ccccc2)N1 [phenidone],inhibition of LPS induced PGHS-2 protein expression,human PGHS-2; up to 10 uM,inactive
COc1ccc(C2CNC(=O)C2)cc1OC1CCCC1 (stereo not drawn) [rolipram],inhibition of LPS induced PGHS-2 protein expression,human PGHS-2; up to 10 uM,inactive
